Common to all, as to experiment: DTP human tumour cell line panel, 48 h
Experiment [1] concerns CCRF-CEM leukemia.
The test system of experiment [2] is HOP-62 NSCLC.
Experiment [3] relates to NCI-H23 lung.
Experiment [4] relates to RXF 393 renal.
The test system of experiment [5] is SK-MEL-2 melanoma.
The subject of experiment [6] is KM12 colon.
The subject of experiment [7] is SF-295 CNS.
For experiment [8], the system named is NCI/ADR-RES ovarian.
Experiment [9] deals with MDA-MB-435.

Several values for one entry are separate records, joined by “and”; a condition that tells them apart may be missing. Equal entries are not always repeated.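 Protocol summary: plate cells (96-well), add compound at 5 concentrations, incubate 48 h, interpolate endpoints linearly. Abbreviation: GI50, concentration required for 50% inhibition of growth. TGI: total growth inhibition.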

Consider 25 compounds from PubChem BioAssay (NCI).

With `COC1=CC(=O)C(Br)=CC1=O`, the TGI in [1] was 8.84 µM; in experiment [2] it was greater than 100 µM; in experiment [3], 40.8 µM; in [4] it was 32.3 µM; in experiment [5] it was 45.7 µM.

Take `O=C(N/C(=C\c1c(O)ccc2ccccc12)c1nc2ccccc2[nH]1)c1ccccc1`: the TGI was greater than 100 µM in [1]; 76.1 µM in experiment [2]; greater than 100 µM in [6]; greater than 100 µM in experiment [3]; 47.7 µM in experiment [4]; greater than 100 µM in [5].

With `Cn1cnc([N+](=O)[O-])c1Sc1nnnn1C`, the TGI was 25 µM in experiment [1]; greater than 100 µM in experiment [2]; greater than 100 µM in experiment [6]; 34.7 µM in experiment [3]; greater than 100 µM in experiment [7]; 37.3 µM in experiment [5].

For `CCN(CCCl)CCCCCNc1c2ccccc2nc2ccc(OC)cc12`, the TGI in [1] stood at 2.78 µM; in experiment [2], 8.38 µM; in [6], 1.81 µM; in experiment [3] it was 1.55 µM; in [4], 2.4 µM; in experiment [7], 9.68 µM. Further, the TGI in experiment [5] was determined as 2.7 µM.

`Cc1c(NC(=O)CCl)c(=O)oc2c(C)c3occc(=O)c3cc12`: the TGI was 41.8 µM in experiment [1]; 29.8 µM in experiment [2]; 23.9 µM in experiment [6]; 60.8 µM in [8]; 25.2 µM in experiment [7].

Turning to `Cc1ccc(NC(=O)C(=O)C(C(=O)c2ccc3ccccc3c2)C2OC(=O)c3ccccc32)c(C)c1` (stereo not drawn), the TGI amounted to 78.1 µM in [1]; 22.4 µM in experiment [2]; 45.5 µM in experiment [6]; 37.2 µM in experiment [3]; 22.5 µM in [4]; 26.8 µM in experiment [5].

Consider `COc1cc(O)c(C(=O)CC(C)=O)c(OC)c1`, for which the TGI in experiment [1], in [2], in [6], in [3], in experiment [4] and in experiment [7] was greater than 100 µM each time. Besides, in experiment [5], the concentration for total growth inhibition (TGI) is greater than 100 µM.

Turning to `CCCN(CCC)CCc1cc(C(C)=O)n(S(=O)(=O)c2ccc(C)cc2)c1`, the TGI in experiment [1], in [2], in experiment [6], in [3], in [7] and in experiment [5] was greater than 100 µM throughout.

On to `CN(C)CCNC(=O)c1cccc2nc3ccc4cccnc4c3nc12`, for which the TGI in experiment [1] stood at 13.1 µM; in experiment [2], 1.86 µM; in [6] it was 3.54 µM; in experiment [3], 1.35 µM; in [4], 1.3 µM; in experiment [7], 3.94 µM. The same compound returned a TGI in experiment [5] of 2.11 µM.

As to `COC1CC(C)C(OC)c2cc(O)cc(c2O)NC(=O)/C(C)=C/C=C\C(C)C(OC(N)=O)/C(C)=C\C(C)C1OC` (stereo not drawn), the GI50 was 0.0356 µM and 0.148 µM in experiment [1]; 0.413 µM in [2]; 0.111 µM and 0.184 µM in experiment [6]; 0.169 µM and 0.179 µM in experiment [3]; 1.33 µM in [4]; 0.665 µM in experiment [7]. In experiment [5], the GI50 was 0.683 µM and 1.16 µM. The TGI in experiment [2] was 36.9 µM and 12.2 µM; in [6], 1.9 µM and 2.83 µM; in [9], 32.2 µM and 6.1 µM; in experiment [3] it was 5.59 µM and 4.37 µM; in experiment [4], 9.01 µM and 8.63 µM; in [7], 9.09 µM and 8.02 µM. Moreover, the TGI in experiment [5] was 16 µM and 11.9 µM.

`COc1cccc2c1C(=O)c1c(O)c3c(c(O)c1C2=O)C[C@@](O)(C(C)=O)C[C@@H]3OC1CC([N+]([O-])(Cc2ccccc2)Cc2ccccc2)C(O)C(C)O1` (stereo partly drawn): the TGI came to 2.98 µM in experiment [2]; 2.9 µM in experiment [6]; 2.58 µM in experiment [3]; 2.57 µM in experiment [4]; 2.88 µM in experiment [7]; 3.46 µM in experiment [5].

As to `CSC(=Nc1ccccc1Cl)NC(=O)c1ccc(Br)cc1`, the TGI in [2] is 55.3 µM; in experiment [6] it was greater than 100 µM; in experiment [3] it was greater than 100 µM; in experiment [4] it was greater than 100 µM; in experiment [7] it was greater than 100 µM; in experiment [5] it was greater than 100 µM.

Turning to `NCCOCn1cc(Cc2cccc(OCc3ccccc3)c2)c(=O)[nH]c1=O`, the TGI in experiment [1], in [6], in experiment [3], in experiment [7] and in experiment [5] was greater than 100 µM in each case.

As to `CC(C)=O.O=C([O-])C(F)(F)F.O=C([O-])C(F)(F)F.O=C([O-])C(F)(F)F.O=C([O-])C(F)(F)F.[Rh+2].[Rh+2]`, the GI50 is 35.5 µM in [1]; greater than 100 µM in experiment [2]; greater than 100 µM in experiment [6]; 46.7 µM in experiment [3]; greater than 100 µM in experiment [4]; greater than 100 µM in experiment [7]. For the same compound, the TGI in experiment [1], in experiment [2], in experiment [6], in experiment [3], in [4] and in [7] was greater than 100 µM in each case.

For the compound `CCC[CH2][Sn]([CH2]CCC)([CH2]CCC)[O]C(=O)C(OC(C)=O)c1ccccc1` (stereo not drawn), the GI50 in experiment [2] is 0.149 µM; in [6], 0.109 µM; in [3], 0.131 µM; in experiment [4], 0.155 µM; in experiment [7], 0.163 µM. Besides, the TGI in experiment [2] was found to be 0.287 µM; in experiment [6] it was 0.23 µM; in experiment [3], 0.262 µM; in [4], 0.302 µM; in [7], 0.301 µM.

For `O=C1C=CC(=O)C2C1Cc1ccccc1C2c1ccccc1` (stereo not drawn), the TGI in experiment [1] is 68.7 µM; in experiment [2] it was greater than 100 µM; in [6], greater than 100 µM; in experiment [3], greater than 100 µM; in experiment [7], greater than 100 µM; in experiment [5] it was 90.1 µM.

Regarding `O=C(Nc1cc(Cl)ccc1Cl)c1cc2cccc(Br)c2oc1=O`, the TGI in experiment [1], in experiment [2], in experiment [6], in experiment [3], in [4] and in experiment [7] was greater than 100 µM each time. The compound further gave a TGI in [5] greater than 100 µM.

Regarding `S=c1nc(C(c2ccccc2)c2ccccc2)[nH][nH]1`, the TGI in experiment [1], in experiment [2], in experiment [6], in experiment [3], in experiment [4] and in experiment [7] was greater than 100 µM each time. Besides, the TGI in experiment [5] was greater than 100 µM.

Regarding `CCO/C(CCn1[nH]c(=O)c(Cl)c(Cl)c1=O)=N\NC(=O)C(=O)NN`, the TGI in [1], in experiment [2], in [6], in [3], in [4] and in [7] was greater than 100 µM throughout. The compound also registered a TGI in [5] greater than 100 µM.

On to `COc1ccc2c3c(c(C(=O)O)oc13)CCC2`, for which the TGI in experiment [1], in [2], in experiment [6], in [3], in experiment [4] and in [7] was greater than 100 µM in each case. In addition, in [5], the TGI was greater than 100 µM.

As to `O=c1/c(=C/c2c(O)ccc3ccccc23)sc2nc3ccccc3n12`, the TGI in experiment [1], in experiment [2], in [6], in [3], in experiment [4] and in experiment [7] was greater than 100 µM each time. Also, in [5], the TGI was greater than 100 µM.

As for `CC(C)(CN1CCOCC1)C(=O)/C=C/c1ccc(/C=C/C(=O)C(C)(C)CN2CCOCC2)cc1`, the TGI in experiment [1] came out at 4.77 µM; in experiment [2], 4.79 µM; in experiment [6] it was 2.92 µM; in experiment [4], 3.45 µM; in experiment [7] it was 4.63 µM.

`Cc1cc(C)nc(NS(=O)(=O)c2ccc(Nc3c4ccccc4nc4c(C(=O)Nc5ccc(S(=O)(=O)Nc6cc(C)on6)cc5)ccc(Cl)c34)cc2)n1`: the TGI came to 71 µM in [1]; 42.5 µM in [2]; 37.1 µM in [6]; 59.7 µM in [3]; 32.7 µM in experiment [4]; 44.8 µM in experiment [7].

Regarding `O=c1nc(NC(c2ccccc2)(c2ccccc2)c2ccccc2)ccn1CCCl`, the TGI in [2] worked out at 40.9 µM; in experiment [6], 31.2 µM; in experiment [3], 56 µM; in [4], 30.8 µM; in experiment [7] it was 42.9 µM; in [5], 29.9 µM.

As to `O=C1OC(c2ccccc2)(c2ccccc2)c2ccc3ccc(F)cc3c21`, the TGI in experiment [1], in [2], in [6], in experiment [3], in experiment [4] and in experiment [7] was greater than 100 µM throughout. This compound gave a TGI in experiment [5] greater than 100 µM.
